Experimental data taken from patent US20220267271A1, “WNT ACTIVATORS AND METHODS OF USE” (MAYO FOUNDATION FOR MEDICAL EDUCATION AND RESEARCH, priority 2019, published 2022).

Key:
hCMEC/D3 cells = assay: Cell viability assay (CellTiter-Glo) in hCMEC/D3 cells; type: cell-based, human; conditions: hCMEC/D3 cells, 0.3, 1, 3, 10 and 30 μM, 24 h
Description: The human brain endothelial capillary hCMEC/D3 cells were cultured with compounds at the indicated concentrations for 24 h. Cell viability was assessed by the Cell TitreGlo Assay system from Promega. Data represent mean±SD from three independent experiments. *P<0.05.
Cell viability assay: Human blood-brain barrier hCMEC/D3 cells were seeded into 96-well tissue culture treated microtiter plates at a density of 20,000 cells/well. After 24 h incubation, the cells were treated with the test compounds at the indicated concentrations for 24 h. Cell viability was measured by the CellTiter-Glo Assay (Promega), which is a luminescent assay that is an indicator of live cells as a function of metabolic activity and ATP content.

S. typhimurium TA1535 = assay: Ames test, bacterial reverse mutation assay, TA1535; set-up: species or system Salmonella typhimuium; conditions: 1011 and 1015 at 400 μM, mean ± SD, n = 3
Description: (§1) Ames test: According to the OECD Guidelines For Testing Of Chemicals, experiments with the tested agents, positive and negative controls, were conducted in triplicates on 6 tester strains, S. typhimurium: TA98, TA100, TA1535, TA1537 and E. coli: wp2[pKM101]+wp2 uvrA mixed 1:2. Dimethyl sulfoxide (DMSO) was used as the vehicle control for all tester strains in mutagenicity assay with and without metabolic activation. Compounds with known mutagenic activity were used as the positive controls in mutagenicity assay without metabolic activation: 2-nitrofluorene (0.1 μg/plate) for TA98, 4-nitroquinoline N-oxide (0.1 μg/plate) for TA100, sodium azide (0.2 μg/plate) for TA1535, 9-aminoacridine (7.5 μg/plate) for TA1537, and 4-nitroquinoline N-oxide (0.1 μg/plate) for E. coli. 2-Aminoantracene in final concentration 0.4 μg/ml was used as the positive control (the solution of 2-aminoantracene in DMSO was prepared immediately before experiment) in test with metabolic activation. For each experiment tester strain cultures were grown overnight in Oxoid nutrient broth #2 at 37° C. with shaking at 235 rpm to a density of 1-2×10^9 colony forming units/ml (OD600˜1.5). The S9 mix, which is consist of 9000 g supernatant fraction of rat liver homogenate (S9 fraction), was prepared immediately prior to its use in experimental procedure.
(§2) The tester strain (10 μl of overnight culture) was mixed with the test agent (10 μl of the DMSO stock) and GM liquid medium (30 μl) or S9 mix (30 μl). Then, 200 μl of molten top agar supplemented with histidine/biotin (final concentration 0.05 mM) for S. typhimurium and tryptophan (final concentration 0.025 mM) for E. coli were added to the tube (top agar was kept at 44° C. to prevent hardening). The mixed suspension was poured onto the surface of a GM agar plate (2.0 ml of GM agar per plate). After the top agar solidified, the plates were inverted and incubated at 37° C. for 48 hours. The results were expressed as number of revertant colonies per plate. The final concentrations of the test compounds in the mutagenicity assay with all tester strains in both the presence and absence of S9 mix were 400 μM. All concentrations were tested in triplicates.

S. typhimurium TA1537 = assay: Ames test, bacterial reverse mutation assay, TA1537; set-up: species or system Salmonella typhimuium; conditions: 1011 and 1015 at 400 μM, mean ± SD, n = 3
Description: as §1, §2

[1] = tested on: E. coli: wp2[pKM101]+wp2 uvrA; assay: Ames test, bacterial reverse mutation assay, E. coli; set-up: species or system Escherichia coli; conditions: 1011 and 1015 at 400 μM, mean ± SD, n = 3
Description: as §1, §2

β-catenin = assay: Cytosolic free β-catenin level in HEK293 cells; type: cell-based
Description: Niclosamide (5-chloro-N-[2-chloro-4-nitrophenyl]-2-hydroxy benzamide), an FDA approved antihelminthic drug, suppresses Wnt/β-catenin signaling by inducing Wnt co-receptor LRP6 degradation in cancer cells. […] CI-994 is an orally active class I histone deacetylase (HDAC) inhibitor [37]. CI-994 increased Wnt reporter activity (FIG. 2B) and cytosolic free β-catenin level in HEK293 cells.

[2] = with metabolic activation (S9 mix)

With `Nc1ccccc1NC(=O)c1ccc(C(=O)NCC2CCN2C2CCCC2)cn1` (stereo not drawn) [Compound 1015] the “cytotoxicity (cell viability)” value (hCMEC/D3 cells) was “not toxic at or below the 10 μM concentration”, the “Number of revertant colonies per plate, TA1535” value (“Number … per plate, TA1535” below) (S. typhimurium TA1535; [2]) was 0.7 ± 1.2 revertant colonies per plate and the “Number … per plate, TA1535” value (S. typhimurium TA1535; without metabolic activation) was 0.3 ± 0.6 revertant colonies per plate. The “Number of revertant colonies per plate, TA1537” value (“Number … per plate, TA1537” for short) (S. typhimurium TA1537; [2]) was 0.0 ± 0.0 revertant colonies per plate, the “Number … per plate, TA1537” value (S. typhimurium TA1537; without metabolic activation) was 0.0 ± 0.0 revertant colonies per plate and the “Number of revertant colonies per plate, E. coli” value (from here on “Number … per plate, E. coli”) [1, 2] was 9.0 ± 2.7 revertant colonies per plate. The “Number … per plate, E. coli” value ([1]; without metabolic activation) was 5.3 ± 4.7 revertant colonies per plate.

For `CC(=O)Nc1ccc(C(=O)Nc2ccccc2N)cc1` [CI-994, 4-(acetylamino)-N-(2-aminophenyl)benzamide, reference compound], the “cytosolic free β-catenin level” value (β-catenin) was “increased”.

With `CC1CCCC(C)N1CCNC(=O)c1ccc(C(=O)Nc2ccccc2N)nc1` (stereo not drawn) [Compound 1011] the “cytotoxicity (cell viability)” value (hCMEC/D3 cells) was “not toxic at all the tested concentrations”, the “Number … per plate, TA1535” value (S. typhimurium TA1535; [2]) was 0.7 ± 0.6 revertant colonies per plate and the “Number … per plate, TA1535” value (S. typhimurium TA1535; without metabolic activation) was 1.7 ± 2.1 revertant colonies per plate. For the same compound, the “Number … per plate, TA1537” value (S. typhimurium TA1537; [2]) was 0.0 ± 0.0 revertant colonies per plate, the “Number … per plate, TA1537” value (S. typhimurium TA1537; without metabolic activation) was 0.7 ± 0.6 revertant colonies per plate and the “Number … per plate, E. coli” value [1, 2] was 9.7 ± 3.2 revertant colonies per plate. The “Number … per plate, E. coli” value ([1]; without metabolic activation) was 8.7 ± 2.1 revertant colonies per plate.
